Measured values taken from patent US20210077479A1, “FORMULATIONS OF PIMAVANSERIN” (ACADIA Pharmaceuticals Inc., priority 2017, published 2021).

Columns and labels:
[1] = tested on: DOI ((±)-2,5-dimethoxy-4-iodoamphetamine, a serotonin agonist) induced head twitches; conditions: rat, oral doses of 3 and 10 mg/kg; cited from earlier work
[2] = Carr's Index (Carr's Compressibility Index), USP <616>/<1174>; format: physicochemical
Procedure: (§1) Can's Index compares the difference between the bulk density and tapped density of a substance to determine its compressibility. The bulk density and the Carr's Index may be determined in accordance with USP<616> (method for performing Bulk and Tapped Densities, method 1) and USP<1174> (definition of powder flow) respectively.
Table 1 visualizes that filling of a capsule, in particular a capsule of size 3 or 4 (capsule volumes of 0.30 and 0.21 ml respectively, approximately […] and 85 mg respectively at a bulk density of 0.5 g/ml). As evident from Table 1, native pimavanserin (API) would be challenging for a size 3 capsule and not possible for a capsule of size 4 without improving the bulk density (as comparison 85 mg of pimavanserin granulation would require about 0.17 ml compared to 0.29 nil for the native API) and flowability (Carr index is frequently used in pharmaceutical manufacturing as an indication of the flowability of a powder, e.g. 2016 U.S. Pharmacopoeia-National Formulary [USP 35 NF 30]).

[3] = Bulk density according to USP <616>, method 1; format: physicochemical
Excerpt: as §1
The bulk density of the blended composition is >0.4 g/ml, such as 0.4-0.6 g/ml, such as about 0.5 g/ml determined according to USP <616>, method 1. In some embodiments the bulk density of the composition is >0.4 g/ml, such as about 0.5 g/ml, such as 0.51 g/ml, such as 0.508 g/ml.
The bulk density of pimavanserin granulation is >0.4 g/ml, such as 0.4-0.6 g/ml, such as about 0.5 g/ml, determined according to USP <616>, method 1. In some embodiments the bulk density of the pimavanserin granulation is >0.4 g/ml, such as about 0.5 g/ml, such as 0.51 g/ml, such as 0.508 g/ml.

[4] = Laser light scattering particle size analysis (Malvern Mastersizer 2000); format: physicochemical; conditions: FIG. 4 / FIG. 5
Excerpt: The small quantity of water, its application using appropriate water atomization and/or water application rate are important reasons for the improved properties of pimavanserin. […] The actual amount of water to be sprayed at the granulation of pimavanserin may vary from batch to batch (depending on surrounding factors such as humidity, temperature, exact properties of the API batch, etc) but is still consider to be a small amount, e.g. 3-10% w/w based on the dry ingredients. The amount of water and the granulation process disclosed herein is controlled by controlling the impeller energy to achieve the targeted impeller speed. The appropriate impeller speed ensures sufficient mixing and controls the growth of granules. The specific small amount of water needed for each batch is controlled by the power consumption (amperage) of the granulator, i.e., if the amperage is […], additional amounts of water could be sprayed to the granulate in order to obtain pimavanserin having the properties desired in order to pharmaceutically manufacture capsules comprising 5-34 mg pimavanserin. […] The properties are achieved via a manufacturing process that includes granulation, using a suitable granulator, e.g. a high shear granulator, simultaneously spraying the adequate amount of water while mixing, followed by screening, and blending appropriate quantities of excipients. […]

| Carr's Index [2] | Bulk density according to USP <616> [3] | volume required for 85 mg ([3]; 85 mg of powder, from bulk density) [mL] | particle size distribution D90 [4] | Compound | activity against DOI induced head twitches [1] |
| --- | --- | --- | --- | --- | --- |
|  |  |  |  | CC(C)COc1ccc(CNC(=O)N(Cc2ccc(F)cc2)C2CCN(C)CC2)cc1 [Pimavanserin, N-(1-methylpiperidin-4-yl)-N-(4-fluorophenylmethyl)-N′-(4-(2-methylpropyloxy)phenylmethyl)carbamide] | effective |
| 36 (n = 2) | 0.294 (n = 2) g/ml | 0.29 | about 30 μm | pimavanserin tartrate [Native API] |  |
